Experiment [1] concerns mitochondria-bound hexokinase (mitochondrial fraction of BCL-1 leukemic cells). Put plainly: Hexokinase detachment assay, mitochondrial fraction of BCL-1 leukemic cells. The conditions noted are these: BCL-1 mitochondrial fraction; 30 minutes at 37° C. Format: biochemical, murine. Here is the method:
(§1) Mitochondrial fraction was prepared by mechanical lysis and differential centrifugation. All stages were performed on ice. Cells or extracted tissues were washed with PBS and disrupted by homogenization in extraction buffer (Sucrose 250 mM, HEPES-NaOH 10 mM, pH 7.2) freshly supplemented with 0.1 mM EDTA and Protease Inhibitors cocktail (Sigma). For each gram of cells or tissue, 4 volumes of extraction buffer were applied. The homogenate volume was doubled with the extraction buffer, and tissue and cell debris as well as nuclei were pelleted by centrifugation of 1,000 g for 10 minutes. The supernatant was further spun at 13,000 g for 10 minutes twice. Endoplasmic reticulum layer was removed. The pellet, designated as the mitochondrial fraction, was suspended in the appropriate buffer, depending on the assay for which the mitochondrial fraction was prepared. Mitochondrial fractions were used immediately or stored at −196° C. […] Activity of hexokinase in the supernatant (i.e., activity of the detached hexokinase) was determined spectrophotometrically at 340 nm. […] Mitochondrial fractions isolated from different cancer cells, namely Molt-4 cells, BCL-1 leukemic cells and B16 melanoma tumors were incubated for 30 minutes at 37° C., and the activity of unbound hexokinase was measured and compared to the activity of spontaneously (control) detached hexokinase. […]

Experiment [2] has as its system HKI and HKII (mitochondrial fraction of Molt-4 cells). Put plainly: Western blot of supernatants with anti-HKI and anti-HKII, Molt-4 mitochondrial fraction. Format: biochemical, human. The conditions noted are these: Molt-4 mitochondrial fraction supernatant. Here is the method: For analysis of hexokinase levels, the experiments were performed similarly to hexokinase detachment assay described above, and unbound hexokinase in the supernatant fraction was extracted as described in Fingrut (2005). Samples were separated by sodium dodecylsulfate-polyacrylamide gel (7%) electrophoresis followed by immunoblotting. The blots were probed with specific anti-HKI or anti-HKII antibodies (1:300, Santa-Cruz Biotechnology, CA, USA). Hexokinase-antibody complexes were stained with HRP-conjugated antibody (1:10,000, Santa-Cruz Biotechnology, CA, USA). Enhanced chemiluminescence (ECL) reagent (Biological Industries, Beit Haemek, Israel) was added, and the blots were exposed to ECL film (Eastman Kodak, Rochester, N.Y., USA). Hexokinase detachment from mitochondrial fraction is not limited to CT-26 colon carcinoma. Mitochondrial fractions isolated from different cancer cells, namely Molt-4 cells, BCL-1 leukemic cells and B16 melanoma tumors were incubated for 30 minutes at 37° C., and the activity of unbound hexokinase was measured and compared to the activity of spontaneously (control) detached hexokinase. […] The supernatant of the experiments were separated on SDS-PAGE and probed with anti-HKI and anti-HKII antibodies.
Background: A western blot detects proteins with antibodies after separation by electrophoresis.

The subject of experiment [3] is mitochondria-bound hexokinase (mitochondrial fraction of Molt-4 cells). Put plainly: Hexokinase detachment assay, mitochondrial fraction of Molt-4 cells. Format: biochemical, human. The conditions noted are these: Molt-4 mitochondrial fraction; 30 minutes at 37° C. The protocol: as §1
The test system of experiment [4] is rabbit immunoglobulin G (Rb IgG). Nature of the experiment: Surface plasmon resonance, irrelevant protein control. The format is binding. The following applies: 6 mM and 3 mM. Here is the method: SPR using ProteOn-EP5 (Bio-Rad, Hercules, Calif., USA) system has been applied to study the direct interaction of methyl jasmonate with hexokinase. This system allowed measuring ligand-analyte interactions in a 6×6 format in real time. Purified rat brain HKI and rabbit immunoglobulin G (Rb IgG; ligands) were diluted in 10 mM Na acetate pH 4 and 4.5, respectively, and coupled to a GLM sensor surface activated with 37.5 mg/ml N-Ethyl-N′-(3′ dimethylaminopropyl) carbodiimide hydrochloride and 7.5 mg/ml N-hydroxysuccinimide. HKI and IgG were added to saturate the chip at 100 μg/ml. Remaining reactive groups on the chip were then inactivated with 1 M ethanolamine pH 8.5. […] Methyl jasmonate and jasmonic acid (analytes) were diluted in running buffer (PBS X 1 with 0.005% Tween and 5% DMSO) and injected onto the sensor chip at varying concentrations. All experiments were performed at flow rate of 50 μl/min, at 25° C.
(SPR reads the build-up and loss of mass on a sensor chip optically.)

Another experiment relates to CT26 cells. Nature of the experiment: Trypan blue exclusion test, CT26. Format: cell-based, murine. The following applies: 3 mM, 1 hour. Here is the method: Cell death was determined by trypan blue exclusion. […] Alternatively, cytotoxicity was determined using hemacolor staining. […] In order to test the correlation between cellular ATP levels and the release of hexokinase from mitochondrial fraction different cancer cells, namely Molt-4 cells, BCL-1 leukemic cells and B16 melanoma tumors were exposed to various methyl jasmonate concentrations. […] CT26 and Molt-4 cells were then seeded in 24 well plates. CT26 cells were allowed to adhere over night. Cells were exposed to methyl jasmonate (MJ; 3 mM) for 1 hour. Trypan blue exclusion test was performed and cells were counted.

Experiment [5] has as its system CT26 cells transfected with pcDNA3-HKII or pcDNA3. Put plainly: ATP depletion in CT26 cells over-expressing hexokinase II. Format: cell-based, murine. The following applies: 60 minutes exposure. Here is the method:
The CellTiter-Glo™ Luminescent Cell Viability Assay (Promega, Madison, Wis., U.S.A.) was employed (Fingrut, 2005). Upon completion of a given experiment, plates were equilibrated to room temperature. CellTiter-Glo™ reagent containing luciferin and luciferase was added to each well and the plates were mixed on an orbital shaker for 2 minutes to induce cell lysis. In the presence of ATP, Mg^2+ and molecular oxygen, mono-oxidation of luciferin is catalyzed by luciferase, generating a luminescence signal. Cells were then incubated for 10 minutes at room temperature to stabilize the luminescence signal. Luminescence was recorded using Kodak digital science—Image station 440 CD. Luminescence is directly proportional to ATP concentration. ATP depletion (% of control) was calculated in the following way: {(luminescence of control cells−luminescence of drug-treated cells)/luminescence of control cells}×100.

In the case of `CC/C=C\CC1C(=O)CCC1CC(=O)OC` (stereo not drawn) [methyl jasmonate], the “detachment of hexokinase (activity of unbound hexokinase compared to control)” value in experiment [1] and in experiment [3] was “detached hexokinase from mitochondrial fraction isolated from the three different cancer cells” in each case. The “detachment of hexokinase confirmed by immunoblot (anti-HKI, anti-HKII)” value in experiment [2] was “detachment of hexokinase from mitochondrial fraction of the various cancer cells was further confirmed”. Moreover, the “binding to immobilized Rb IgG (SPR)” value in experiment [4] is listed as “binds to hexokinase but not to Rb IgG”. The “live/dead cells by Trypan blue exclusion” value in the experiment with CT26 cells was “still alive after 60 minutes”. Besides, the “depletion of cellular ATP levels, hexokinase II over-expressing vs. control cells” value in experiment [5] was “decreased in cells with higher expression of hexokinase II”.

The values above are taken from patent US8349553B2, “Jasmonate based assays for identifying compounds that selectively inhibit mitochondrial bound hexokinases” (Ramot at Tel Aviv University Ltd., priority 2007, dated 2013).
